This note sets out measurements from article PMC3773436 (Evidence-based Complementary and Alternative Medicine : eCAM, 2013).

Assay [1] concerns the target T1, Porcine kidney DPP-IV (Sus scrofa, UniProt P22411).
T1 construct: purchased Sigma-Aldrich; host or cells: porcine kidney (tissue-derived, as named)
The experiment in a line: DPP-IV Glo Protease Assay (luminescence), DPP-IV inhibition. It is filed as biochemical. Conditions: for DPP-IV inhibitory activity (in words): tested at 0.5, 5, 20 and 40 μg/mL, data not shown. The text has this:
All solvents used for phenolic extraction were HPLC-grade and were purchased from Fisher Scientific (Pittsburg, PA). Amberlite XAD-7 was purchased from Sigma-Aldrich (St. Louis, MO). Sephadex LH-20 was purchased from GE Life Sciences (Buckinghamshire, UK). […] DPP-IV Glo^TM Protease Assay kits were purchased from Promega (Madison, WI). […] All other reagents were of analytical grade.
Measurement of the activity and potential inhibition of DPP-IV, a type II membrane glycoprotein, was done using the DPP-IV Glo^TM Protease Assay following the manufacture's protocol (Promega, Madison, WI). Briefly, 50 μL of DPP-IV Glo^TM reagent was added to a white-walled 96-well plate containing 50 μL of blank, positive control, or treatment. The blank contained the vehicle only while positive control contained the vehicle and purified DPP-IV enzyme (at a final concentration of 1 ng/mL). […] The content of the wells was gently mixed using an Ultra Microplate Reader (Biotek Instruments, Winooski, VT) at medium intensity for 4 s. DPP-IV cleavage of the provided Gly-Pro-amino methyl coumarin (AMC) substrate generated a luminescent signal by luciferase reaction, with the amount of DPP-IV enzyme available to bind Gly-Pro-AMC proportional to relative light units (RLU) produced. This signal in RLU was measured after 30 min in the Ultra Microplate Reader and then compared to the blank. […] IC50 values were calculated based on the molecular mass of each compound or C3G as the equivalent for ANC-enriched fractions.
Data were expressed as means of independent duplicates with at least three replicates. […] Statistical analysis was conducted using the proc GLM procedures of SAS version 9.3 (SAS Inst. Inc., Cary, NC, 2009). Group mean comparisons were conducted using Duncan means and were considered to be significant at P < 0.05 based on the least significant differences (LSD) from one-way analysis of variance (ANOVA) with alpha = 0.05. Correlations were made using Pearson's correlation values with P < 0.05.

In assay [2] the target is T1, Porcine kidney DPP-IV. The experiment in a line: Inhibitory kinetics study, Lineweaver-Burk plot, Gly-Pro-AMC substrate. The class given is biochemical. Conditions: for Ki: Gly-Pro-AMC 0–60 μM, read-out: K i (enzyme-inhibition constant, experimental). As to the method: Each concentration was evaluated in the presence of various concentrations of Gly-Pro-AMC (0–60 μM). DPP-IV activity was measured using the DPP-IV Glo Protease Assay as mentioned above. The inhibition pattern was evaluated utilizing the Lineweaver-Burk plot. Enzyme-inhibition constant K i was determined by plotting the reciprocal of the initial luminescence versus the reciprocal of the initial substrate concentration.
Initial rates of the reaction were measured, and the results are expressed as a Lineweaver-Burk plot. Data are expressed as the mean of four independent experiments.

The mark [3] stands for this setting: pure compounds, concentration based on molecular mass, means ± SEM, read-out: IC50, DPP-IV inhibition.

The IC50 is the concentration that gives 50% inhibition.

“Also recorded” adds a separate entry of the source. Like-named read-outs stand apart in the source and are kept apart here.

T1 sequence (P22411 whole entry): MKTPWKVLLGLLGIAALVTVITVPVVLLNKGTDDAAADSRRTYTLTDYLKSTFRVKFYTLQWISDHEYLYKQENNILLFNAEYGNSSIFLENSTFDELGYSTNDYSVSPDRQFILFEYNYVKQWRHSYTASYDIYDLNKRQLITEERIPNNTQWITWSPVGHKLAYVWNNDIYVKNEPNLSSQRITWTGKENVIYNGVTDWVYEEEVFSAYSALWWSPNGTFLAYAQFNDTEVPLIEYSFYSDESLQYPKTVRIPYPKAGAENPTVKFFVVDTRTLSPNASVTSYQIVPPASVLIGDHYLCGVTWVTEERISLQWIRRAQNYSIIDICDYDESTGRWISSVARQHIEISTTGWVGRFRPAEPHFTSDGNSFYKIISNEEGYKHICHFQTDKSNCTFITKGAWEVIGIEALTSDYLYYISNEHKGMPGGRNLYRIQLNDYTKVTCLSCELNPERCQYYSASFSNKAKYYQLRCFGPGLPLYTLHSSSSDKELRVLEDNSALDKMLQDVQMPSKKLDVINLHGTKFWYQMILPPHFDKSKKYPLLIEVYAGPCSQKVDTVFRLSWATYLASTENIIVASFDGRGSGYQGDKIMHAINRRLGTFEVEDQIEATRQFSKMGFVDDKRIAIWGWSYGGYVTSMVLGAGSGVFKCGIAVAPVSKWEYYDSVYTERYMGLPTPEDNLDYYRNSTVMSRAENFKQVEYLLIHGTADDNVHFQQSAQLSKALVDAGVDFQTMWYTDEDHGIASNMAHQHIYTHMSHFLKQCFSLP

Regarding `O=c1c(-c2ccc(O)cc2)coc2cc(O)cc(O)c12` [Genistein, genistein], the IC50 on Porcine kidney DPP-IV [1] (setting [3]) was found to be 480 ± 40 nM.

On to `O=c1cc(-c2ccc(O)c(O)c2)oc2cc(O)cc(O)c12` [Luteolin, luteolin], for which the IC50 at Porcine kidney DPP-IV [1] (setting [3]) worked out at 120 ± 10 nM. Also, on Porcine kidney DPP-IV [2], the Inhibition manner entry is “noncompetitively; also recorded: noncompetitive” and the Ki stood at 4.9 ± 0.2 µM. For `O=c1c(O)c(-c2ccc(O)cc2)oc2cc(O)cc(O)c12` [Kaempferol, kaempferol], on Porcine kidney DPP-IV [1] (setting [3]), the IC50 stood at 490 ± 20 nM. With `C[C@@H]1O[C@@H](OC[C@H]2O[C@@H](Oc3cc(O)c4c(c3)O[C@H](c3ccc(O)c(O)c3)CC4=O)[C@H](O)[C@@H](O)[C@@H]2O)[C@H](O)[C@H](O)[C@H]1O` [Eriocitrin, eriocitrin], at Porcine kidney DPP-IV [1] (setting [3]), the IC50 was 10360 ± 90 nM. In the case of `COc1ccc([C@@H]2CC(=O)c3c(O)cc(O)cc3O2)cc1O` [Hesperetin, hesperetin], on Porcine kidney DPP-IV [1] (setting [3]), the half-maximal inhibitory concentration (IC50) amounted to 280 ± 70 nM. Regarding `O=C1C[C@@H](c2ccc(O)cc2)Oc2cc(O)cc(O)c21` [Naringenin, naringenin], the IC50 on Porcine kidney DPP-IV [1] (setting [3]) amounted to 240 ± 30 nM. Regarding `Oc1cc(O)c2cc(O)c(-c3ccc(O)c(O)c3)[o+]c2c1` [Cyanidin, cyanidin], the IC50 at Porcine kidney DPP-IV [1] (setting [3]) stood at 1410 ± 250 nM. As for `O=C(O)c1cc(O)c(O)c(O)c1` [Gallic acid, gallic acid], on Porcine kidney DPP-IV [1] (setting [3]), the IC50 is 4650 ± 990 nM. As to `O=c1c(-c2ccc(O)cc2)coc2cc(O[C@@H]3O[C@H](CO)[C@@H](O)[C@H](O)[C@H]3O)cc(O)c12` [genistin], the “DPP-IV inhibitory activity (in words)” value at Porcine kidney DPP-IV [1] was “did not have DPP-IV inhibitory activity”. On the same count and under the same terms, the value for `COc1ccc([C@@H]2CC(=O)c3c(O)cc(O[C@@H]4O[C@H](CO[C@@H]5O[C@@H](C)[C@H](O)[C@@H](O)[C@H]5O)[C@@H](O)[C@H](O)[C@H]4O)cc3O2)cc1O` [hesperidin] was “did not have DPP-IV inhibitory activity; also recorded: no DPP-IV inhibitory effect”.

In the case of `OC[C@H]1O[C@@H](Oc2cc3c(O)cc(O)cc3[o+]c2-c2ccc(O)c(O)c2)[C@H](O)[C@@H](O)[C@@H]1O` [Cyanidin-3-glucoside, cyanidin-3-glucoside], the IC50 at Porcine kidney DPP-IV [1] (setting [3]) came out at 420 ± 90 nM. Turning to `Oc1cc(O)c2c(c1)O[C@H](c1ccc(O)c(O)c1)[C@H](O)C2` [epicatechin], the “DPP-IV inhibitory activity (in words)” value on Porcine kidney DPP-IV [1] is reported as “did not have DPP-IV inhibitory activity”. Regarding `O=c1cc(-c2ccccc2)oc2ccccc12` [Flavone, flavone], at Porcine kidney DPP-IV [1] (setting [3]), the IC50 was 170 ± 10 nM. On Porcine kidney DPP-IV [2], the Inhibition manner result is recorded as “competitive” and the Ki came out at 18.6 ± 0.3 µM. In the same order, the values of `Oc1ccc(/C=C/c2cc(O)cc(O)c2)cc1` [Resveratrol, resveratrol] are 0.6 ± 0.4 nM, “competitive” and 0.2 ± 0.01 µM. With `C[C@@H]1O[C@@H](OC[C@H]2O[C@@H](Oc3cc(O)c4c(c3)O[C@H](c3ccc(O)cc3)CC4=O)[C@H](O)[C@@H](O)[C@@H]2O)[C@H](O)[C@H](O)[C@H]1O` [narirutin], on Porcine kidney DPP-IV [1], the “DPP-IV inhibitory activity (in words)” value is “did not have DPP-IV inhibitory activity; also recorded: no DPP-IV inhibitory effect”. On to `O=c1c(O)c(-c2ccc(O)c(O)c2)oc2cc(O)cc(O)c12` [Quercetin, quercetin], for which, on Porcine kidney DPP-IV [1] (setting [3]), the IC50 turned out to be 2920 ± 680 nM. For `C[C@@H]1O[C@@H](O[C@H]2[C@H](Oc3cc(O)c4c(c3)O[C@H](c3ccc(O)cc3)CC4=O)O[C@H](CO)[C@@H](O)[C@@H]2O)[C@H](O)[C@H](O)[C@H]1O` [naringin], on Porcine kidney DPP-IV [1], the “DPP-IV inhibitory activity (in words)” value was “did not have DPP-IV inhibitory activity; also recorded: no DPP-IV inhibitory effect”.

As to `O=C(/C=C/c1ccc(O)c(O)c1)O[C@@H]1C[C@](O)(C(=O)O)C[C@@H](O)[C@H]1O` [chlorogenic acid], at Porcine kidney DPP-IV [1], the “DPP-IV inhibitory activity (in words)” value was “did not have DPP-IV inhibitory activity”. As to `CC1(C)O[C@H]2CC(=O)OC[C@]23[C@H]2CC[C@@]4(C)[C@H](c5ccoc5)OC(=O)[C@H]5O[C@]54[C@]2(C)C(=O)C[C@@H]13` [limonin], the “DPP-IV inhibitory activity (in words)” value on Porcine kidney DPP-IV [1] is “did not have DPP-IV inhibitory activity”. For `O=C(O)c1ccc(O)c(O)c1` [protocatechuic acid], the “DPP-IV inhibitory activity (in words)” value at Porcine kidney DPP-IV [1] is listed as “did not have DPP-IV inhibitory activity”. For the compound `O=c1cc(-c2ccc(O)cc2)oc2cc(O)cc(O)c12` [Apigenin, apigenin], the IC50 at Porcine kidney DPP-IV [1] (setting [3]) was determined as 140 ± 20 nM. Further, on Porcine kidney DPP-IV [2], the Inhibition manner entry is “noncompetitively; also recorded: noncompetitive” and the Ki came to 7.9 ± 1.4 µM.

Consider `C[C@@H]1O[C@@H](OC[C@H]2O[C@@H](Oc3c(-c4ccc(O)c(O)c4)oc4cc(O)cc(O)c4c3=O)[C@H](O)[C@@H](O)[C@@H]2O)[C@H](O)[C@H](O)[C@H]1O` [rutin, rutin hydrate], for which the “DPP-IV inhibitory activity (in words)” value at Porcine kidney DPP-IV [1] is “did not have DPP-IV inhibitory activity; also recorded: no DPP-IV inhibitory effect”. With `COc1ccc([C@@H]2CC(=O)c3c(O)cc(O[C@@H]4O[C@H](CO)[C@@H](O)[C@H](O)[C@H]4O[C@@H]4O[C@@H](C)[C@H](O)[C@@H](O)[C@H]4O)cc3O2)cc1O` [neohesperidin], the “DPP-IV inhibitory activity (in words)” value on Porcine kidney DPP-IV [1] is “did not have DPP-IV inhibitory activity; also recorded: no DPP-IV inhibitory effect”. Consider `O=C(O)/C=C/c1ccc(O)c(O)c1` [Caffeic acid, caffeic acid], for which the IC50 on Porcine kidney DPP-IV [1] (setting [3]) stood at 3370 ± 140 nM.

Compound `COc1cc(-c2[o+]c3cc(O)cc(O)c3cc2O)cc(OC)c1O` [Malvidin, malvidin] showed an IC50 on Porcine kidney DPP-IV [1] of 740 ± 160 nM. Turning to `O=C(O[C@@H]1Cc2c(O)cc(O)cc2O[C@@H]1c1cc(O)c(O)c(O)c1)c1cc(O)c(O)c(O)c1` [EGCG, epigallocatechin gallate], the IC50 at Porcine kidney DPP-IV [1] (setting [3]) was determined as 10200 ± 750 nM. As for `O.Oc1cc(O)c2c(c1)O[C@H](c1ccc(O)c(O)c1)[C@@H](O)C2` [catechin], at Porcine kidney DPP-IV [1], the “DPP-IV inhibitory activity (in words)” value is “did not have DPP-IV inhibitory activity”.
